Experiment [1] is described as follows: Test of calcification (calcein staining, confocal microscopy). The conditions noted are these: cultured 14 days in medium for forming hard tissue; compared with group without peptides. Format: cell-based, human. On the procedure:
The bone graft materials prepared in Examples 2 was added to a medium for forming a hard tissue containing calcein (fluorescent marker of calcium), and human mesenchymally derived stem cells (C2Cl2: ATCC CRL-1772) were cultured for 14 days. The cultured osteoblasts werefixed with 2% glutaraldehyde solution and treated with 1% triton X-100 and then added with a fluorescent-labeled phalloidin solution, thus staining the fixed cytoplasm.

The test system of experiment [2] is ERK. Kind of experiment: Western blot of phosphorylated ERK (pERK). To be noted: C2C12 cells treated with peptides for 30 min; compared with non-treated cells (NT). Format: cell-based, human. Here is the method:
In order to examine the expression of differentiation marker protein in osteoblasts cultured on the surface of the bone graft material on which peptides added with cysteine at each N-terminal end of amino acid sequences of SEQ ID NOs: 1, 2 and 3, prepared in example 2 according to the present invention were immobilized, the peptides were exposed to human mesenchymally derived stem cells (C2C12) for 30 min, and collected to measure the amount of ERK protein, a marker proteins involved in intracellular signal transfer, by Western blot.
The human mesenchymally derived stem cells were transplanted to 60 mm of petridish, treated with peptides for 30 min. Whole intracellular protein was extracted and quantitated by Bradford method. 40[…] of protein was electrophoresed on acrylamide gel and transferred to nitrocellulose membrane, and ERK, intracellular signal transmission protein within cell was reacted with the antibody of phosphorylated ERK (pERK), followed by reacting with the second antibody labeled with a marker. The membrane was developed to observe the protein bands and measure densities thereof (FIG. 4).

The test system of experiment [3] is Human-osteocarcoma cells (KCLB No. 21543). Kind of experiment: Test of cell adhesion on peptide-immobilized bone graft material. Format: cell-based. To be noted: phalloidin staining, confocal laser scanning microscope. On the procedure: […] The bone graft materials with the cultured human-osteocarcoma cell were fixed with 2% glutaraldehyde solution. The fixed bone graft materials were treated with 1% triton X-100 and then added with a fluorescent-labeled phalloidin solution, thus staining the attached cytoplasm.

Experiment [4] has as its system type I collagen. Kind of experiment: Affinity of peptide to type I collagen by Biacore X. To be noted: type I collagen bound to CM5 chip, peptide dissolved to be 4 μmol, ranking among SEQ ID NO: 1-3. Format: binding. The source says:
The synthesized peptide's affinity to type I collagen was examined using Biacore X (Biacore Co., Sweden). After the type I collagen was bound to CM5 chip, the amount of peptides binding with collagen was quantitated while flowing the prepared peptide dissolved to be 4 μmol into micro-channels of Biacore X (FIG. 1).
On the technique in general: In SPR one partner is held on a chip, and binding of the other changes the refractive index at the surface.

In the case of “KMFHVSNAQYPGA (listed as Oryctolagus cuniculus) [SEQ ID NO: 2]”, the “calcium adhesion (calcein fluorescence), calcification of cells” value (shortened to “calcium adhesion (calcein fluorescence)”) in experiment [1] is recorded as “much more fluorescence”. Further, the “expression of phosphorylated ERK (pERK)” value in experiment [2] was “significantly increased”. Besides, in experiment [3], the “cell adhesion pattern on coated surface” value is “stable adhesion of the cells”. In addition, in experiment [4], the “affinity to type I collagen (amount of peptide binding with collagen)” value is “lowest affinity”.

For “YRLKRSKSKMFHVSNAQYPGA (listed as Oryctolagus cuniculus) [SEQ ID NO: 3]”, the “calcium adhesion (calcein fluorescence)” value in experiment [1] was “much more fluorescence”. Besides, the “expression of phosphorylated ERK (pERK)” value in experiment [2] is “significantly increased”. In addition, the “cell adhesion pattern on coated surface” value in experiment [3] is “stable adhesion of the cells”. The “affinity to type I collagen (amount of peptide binding with collagen)” value in experiment [4] is given as “highest affinity”.

Consider “Bovine serum albumin [BSA, reference compound]”, for which the “cell adhesion pattern on coated surface” value in experiment [3] was “spherical and unstable adhesion aspect of the cells”.

As for “YRLKRSKS (listed as Oryctolagus cuniculus) [SEQ ID NO: 1]”, the “calcium adhesion (calcein fluorescence)” value in experiment [1] is listed as “much more fluorescence”. In addition, the “expression of phosphorylated ERK (pERK)” value in experiment [2] is on record as “significantly increased”. Further, in experiment [3], the “cell adhesion pattern on coated surface” value is “stable adhesion of the cells”.

The values are drawn from US8349804B2, “Bone graft and scaffolding materials immobilized with type I collagen binding peptides” (Seoul National University Industry Foundation, priority 2006, dated 2013).
Sequence of type I collagen (P02452 162-1218 limits assumed): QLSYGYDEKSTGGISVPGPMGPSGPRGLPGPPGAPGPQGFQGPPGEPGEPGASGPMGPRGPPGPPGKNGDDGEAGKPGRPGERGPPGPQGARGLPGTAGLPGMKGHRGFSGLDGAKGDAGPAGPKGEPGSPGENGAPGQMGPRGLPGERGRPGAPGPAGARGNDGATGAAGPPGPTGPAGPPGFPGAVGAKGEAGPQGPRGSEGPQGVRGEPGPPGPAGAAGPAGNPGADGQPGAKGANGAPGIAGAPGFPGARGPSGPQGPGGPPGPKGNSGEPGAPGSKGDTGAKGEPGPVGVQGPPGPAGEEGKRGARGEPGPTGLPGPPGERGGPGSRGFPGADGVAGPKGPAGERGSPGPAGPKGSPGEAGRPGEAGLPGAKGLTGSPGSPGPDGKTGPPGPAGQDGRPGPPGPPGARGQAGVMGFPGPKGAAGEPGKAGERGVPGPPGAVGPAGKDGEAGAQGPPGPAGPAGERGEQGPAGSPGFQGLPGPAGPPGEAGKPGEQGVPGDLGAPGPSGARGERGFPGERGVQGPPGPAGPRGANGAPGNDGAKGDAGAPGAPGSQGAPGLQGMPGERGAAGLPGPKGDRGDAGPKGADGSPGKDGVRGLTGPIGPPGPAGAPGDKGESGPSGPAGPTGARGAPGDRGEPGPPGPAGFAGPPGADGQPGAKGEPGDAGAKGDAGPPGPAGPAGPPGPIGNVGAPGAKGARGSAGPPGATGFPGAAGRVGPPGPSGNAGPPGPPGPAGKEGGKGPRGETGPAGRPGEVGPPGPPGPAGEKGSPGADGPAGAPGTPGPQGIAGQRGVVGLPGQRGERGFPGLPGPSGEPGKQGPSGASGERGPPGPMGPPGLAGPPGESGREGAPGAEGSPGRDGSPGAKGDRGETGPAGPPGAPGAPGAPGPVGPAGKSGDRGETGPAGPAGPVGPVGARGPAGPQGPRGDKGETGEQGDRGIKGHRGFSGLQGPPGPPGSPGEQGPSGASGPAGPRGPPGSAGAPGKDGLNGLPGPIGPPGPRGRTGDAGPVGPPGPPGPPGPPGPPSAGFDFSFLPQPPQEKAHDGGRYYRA
Sequence of type I collagen (P08123 80-1119 limits assumed, further chain): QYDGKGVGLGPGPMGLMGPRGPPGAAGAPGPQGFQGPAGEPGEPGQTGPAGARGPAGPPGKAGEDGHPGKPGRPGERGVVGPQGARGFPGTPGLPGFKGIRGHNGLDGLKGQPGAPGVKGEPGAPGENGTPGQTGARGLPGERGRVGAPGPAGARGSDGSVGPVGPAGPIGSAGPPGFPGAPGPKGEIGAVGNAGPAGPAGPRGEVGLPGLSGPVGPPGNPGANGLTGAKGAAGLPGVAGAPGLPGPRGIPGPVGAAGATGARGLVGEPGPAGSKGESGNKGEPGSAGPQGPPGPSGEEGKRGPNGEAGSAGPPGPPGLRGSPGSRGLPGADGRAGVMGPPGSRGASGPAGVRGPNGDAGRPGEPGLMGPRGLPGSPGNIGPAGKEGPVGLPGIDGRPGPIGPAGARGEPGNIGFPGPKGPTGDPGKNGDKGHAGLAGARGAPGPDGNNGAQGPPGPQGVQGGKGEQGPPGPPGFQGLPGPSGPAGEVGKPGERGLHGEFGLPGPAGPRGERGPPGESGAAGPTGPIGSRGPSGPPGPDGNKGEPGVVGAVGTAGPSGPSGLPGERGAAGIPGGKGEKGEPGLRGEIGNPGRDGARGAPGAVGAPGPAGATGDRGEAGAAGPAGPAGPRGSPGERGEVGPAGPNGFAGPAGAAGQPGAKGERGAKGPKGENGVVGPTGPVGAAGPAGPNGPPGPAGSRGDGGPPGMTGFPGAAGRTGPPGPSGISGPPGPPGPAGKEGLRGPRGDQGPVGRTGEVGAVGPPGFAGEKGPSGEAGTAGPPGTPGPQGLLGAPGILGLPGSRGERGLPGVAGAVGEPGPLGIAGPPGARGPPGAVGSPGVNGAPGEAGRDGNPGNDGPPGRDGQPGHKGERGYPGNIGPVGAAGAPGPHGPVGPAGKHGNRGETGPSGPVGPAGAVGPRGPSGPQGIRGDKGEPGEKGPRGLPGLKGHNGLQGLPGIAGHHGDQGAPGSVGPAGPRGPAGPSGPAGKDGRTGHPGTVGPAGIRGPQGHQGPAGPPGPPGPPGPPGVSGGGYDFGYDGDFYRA
